In patent US20250122520A1, “Application of OBF1 Transcription Factor in Chromosome Doubling of Plant and Transgenic Plant Cultivation Method” (JIANGSU ACADEMY OF AGRICULTURAL SCIENCES, priority 2023, published 2025):

Tests used:
Assay type in all cases: in vivo
petunia = experiment: Ploidy identification by flow cytometer of OBF1 over-expressing petunias screened with kanamycin; settings: for Proportion of chromosome doubling: OBF1 over-expression
Experimental: (9) Two days later, the leaves were transferred to a regeneration culture medium with corresponding screening resistance, the culture medium was replaced every two to three weeks, and the leaves waited for differentiation.
(14) The ploidy of the plants was identified by a flow cytometer, a doubling ratio of the plants under different treatment concentrations of kanamycin was calculated, and the results are shown in Table 2 and FIGS. 10A-10C.

tomatoes = experiment: Ploidy identification by flow cytometer of OBF1 over-expressing tomatoes screened with kanamycin; settings: tomato; for Proportion of chromosome doubling: OBF1 over-expression
Experimental: (5) The explants were transferred and placed into the screening culture medium; the photoperiod was 18/6 h, the temperature was 22-25° C., the humidity was 60%, and concentration settings of kanamycin and compositions of culture media were shown in Table 3;
(6) The ploidy of the plants was identified by a flow cytometer, the doubling ratio of the plants under different screening concentrations of kanamycin was calculated, and the results are shown in Table 4 and FIGS. 12A-12B.

tobaccoes = experiment: Ploidy identification by flow cytometer of OBF1 over-expressing tobaccoes screened with kanamycin; settings: tobacco; for Proportion of chromosome doubling: OBF1 over-expression
Experimental: (5) The leaves were transferred to a screening culture medium with corresponding screening resistance; the culture medium was replaced every two to three weeks, and the leaves waited for differentiation.
(8) The ploidy of the plants was identified by a flow cytometer, the doubling ratio of the plants under different screening concentrations of kanamycin was calculated, and the results are shown in Table 6 and FIGS. 14A-14B.

NC[C@H]1O[C@H](O[C@H]2[C@H](O)[C@@H](O[C@H]3O[C@H](CO)[C@@H](O)[C@H](N)[C@H]3O)[C@H](N)C[C@@H]2N)[C@H](O)[C@@H](O)[C@@H]1O [kanamycin]
Proportion of chromosome doubling (petunia; kanamycin 50 mg/L): 0% | Proportion of chromosome doubling (petunia; kanamycin 100 mg/L): 63.6% | Proportion of chromosome doubling (petunia; kanamycin 150 mg/L): 80% | Chromosome-doubled plant (petunia; kanamycin 50 mg/L, of 27 transgenic plants): 0 plant | Chromosome-doubled plant (petunia; kanamycin 100 mg/L, of 22 transgenic plants): 14 plant | Chromosome-doubled plant (petunia; kanamycin 150 mg/L, of 6 transgenic plants): 4 plant | Proportion of chromosome doubling (tomatoes; kanamycin 50 mg/mL): 0% | Proportion of chromosome doubling (tomatoes; kanamycin 100 mg/mL): 60% | Chromosome-doubled plant (tomatoes; kanamycin 50 mg/mL, of 30 transgenic plants): 0 plant | Chromosome-doubled plant (tomatoes; kanamycin 100 mg/mL, of 10 transgenic plants): 6 plant | Proportion of chromosome doubling (tobaccoes; kanamycin 50 mg/mL): 0% | Proportion of chromosome doubling (tobaccoes; kanamycin 100 mg/mL): 33.3% | Chromosome-doubled plant (tobaccoes; kanamycin 50 mg/mL, of 10 transgenic plants): 0 plant | Chromosome-doubled plant (tobaccoes; kanamycin 100 mg/mL, of 20 transgenic plants): 6 plant
